# Data taken from patent US9890147B2 (BAYER PHARMA AKTIENGESELLSCHAFT, priority 2012, dated 2018).
# Key:
# [1] = target: T1, BRD4 (BD1) (Homo sapiens, UniProt O60885); experiment: Binding assay BRD4/acetylated peptide H4 (TR-FRET protein-protein interaction assay)
# T1 construct: with relatively long constructs also being possible, preferably amino acids 44-168; made in house; host or cells: E. coli
# Summary of the method: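 His6-BRD4 BD1 (aa 67-152, E. coli), usually 10 nM, with biotinylated tetra-acetylated H4 peptide in HEPES pH 7.5 buffer; 11 compound concentrations 0.1 nM–20 μM in duplicate, 10 min preincubation, 1 h at 22 °C then ≥3 h at 4 °C. TR-FRET 665/620 ratio; IC50 by 4-parameter fit.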
# [2] = tested on: MOLM-13 cells; experiment: Cell proliferation assay (alamarBlue), MOLM-13; format: cell-based; conditions: 96 hours incubation, inhibition of cell proliferation
# Summary of the method: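 Cells in RPMI1640/10% FCS read by alamarBlue fluorescence (ex 530, em 590 nm) after overnight 37 °C incubation, then treated at 1E-5 to 1E-8 M for 96 h. Pre-treatment values subtracted from endpoint values and compared with buffer-only wells; IC50 is 50% proliferation inhibition.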
SMILES,IC50 [1] [nM],IC50 ([2]; Homo sapiens) [nM],IC50 [2] [nM]
"CNC(=O)N1N=C(c2ccc(Cl)cc2)c2cc(OCCCN3CCN(C)CC3)ccc2C[C@@H]1C [Example 164.2, (4S)-1-(4-chlorophenyl)-N,4-dimethyl-8-[3-(4-methylpiperazin-1-yl)propoxy]-4,5-dihydro-3H-2,3-benzodiazepine-3-carboxamide]",60,420,
"CNC(=O)N1N=C(c2ccc(-c3c(C)noc3C)cc2)c2cc(C)ccc2CC1C (racemic) [Example 158, (±)-1-[4-(3,5-dimethylisoxazol-4-yl)phenyl]-N,4,8-trimethyl-4,5-dihydro-3H-2,3-benzodiazepine-3-carboxamide]",60,430,
"CNC(=O)N1N=C(c2ccc(-n3ccc(-c4ccc(F)cc4)n3)cc2)c2cc(OC)c(OC)cc2C[C@H]1C [Example 150.2, (4R)-1-{4-[3-(4-fluorophenyl)-1H-pyrazol-1-yl]phenyl}-7,8-dimethoxy-N,4-dimethyl-4,5-dihydro-3H-2,3-benzodiazepine-3-carboxamide]",12300,9870,
"CNC(=O)N1N=C(c2ccc(-c3cccc(C(=O)N4CCCCC4)c3)cc2)c2cc(OC)c(OC)cc2CC1C (racemic) [Example 97, (±)-7,8-dimethoxy-N,4-dimethyl-1-[3′-(piperidin-1-ylcarbonyl)biphenyl-4-yl]-4,5-dihydro-3H-2,3-benzodiazepine-3-carboxamide]",50,450,
CCc1cc(C2CC2)nn1-c1ccc(C2=NN(C(=O)NC)[C@@H](C)Cc3ccc(OC)cc32)cc1 [Example 24],250,1170,
"CNC(=O)N1N=C(c2ccc(N3CCS(=O)(=O)CC3)cc2)c2cc(OC)c(OC)cc2C[C@@H]1C [Example 136, (4S)-1-[4-(1,1-dioxidothiomorpholin-4-yl)phenyl]-7,8-dimethoxy-N,4-dimethyl-4,5-dihydro-3H-2,3-benzodiazepine-3-carboxamide]",20,200,
"CNC(=O)N1N=C(c2ccc(N3CCOCC3=O)cc2)c2cc(OC)ccc2C[C@@H]1C [Example 177, (4S)-8-Methoxy-N,4-dimethyl-1-[4-(3-oxomorpholin-4-yl)phenyl]-4,5-dihydro-3H-2,3-benzodiazepine-3-carboxamide]",70,490,
"CNC(=O)N1N=C(c2ccc(-c3ccc(S(=O)(=O)NC4CC4)cc3)cc2)c2cc(OC)c(OC)cc2CC1C (racemic) [Example 118, (±)-1-[4′-(cyclopropylsulphamoyl)-biphenyl-4-yl]-7,8-dimethoxy-N,4-dimethyl-4,5-dihydro-3H-2,3-benzodiazepine-3-carboxamide]",70,500,
"CCC1Cc2cc(OC)c(OC)cc2C(c2ccc(-c3cn(C)nn3)cc2)=NN1C(=O)NC (racemic) [Example 222, (±)-4-ethyl-7,8-dimethoxy-N-methyl-1-[4-(1-methyl-1H-1,2,3-triazol-4-yl)phenyl]-4,5-dihydro-3H-2,3-benzodiazepine-3-carboxamide]",960,2120,
"CNC(=O)N1N=C(c2ccc(N3CCOCC3)cc2)c2cc(NC(C)=O)ccc2CC1C (racemic) [Example 171, (±)-8-Acetamido-N,4-dimethyl-1-[4-(morpholin-4-yl)phenyl]-4,5-dihydro-3H-2,3-benzodiazepine-3-carboxamide]",120,1910,
"CNC(=O)N1N=C(c2ccc(-c3c(C)noc3C)cc2)c2cc(Cl)c(OC)cc2C[C@H]1C [Example 157.2, (4R)-8-chloro-1-[4-(3,5-dimethylisoxazol-4-yl)phenyl]-7-methoxy-N,4-dimethyl-4,5-dihydro-3H-2,3-benzodiazepine-3-carboxamide]",470,2190,
CNC(=O)N1N=C(c2ccc(Cl)cc2)c2cc(OCCN3CCCC3)ccc2CC1C (stereo not drawn) [Example 33],770,,3310
"CNC(=O)N1N=C(c2ccc(-c3ccccc3NS(C)(=O)=O)cc2)c2cc(OC)c(OC)cc2CC1C (racemic) [Example 68, (±)-7,8-dimethoxy-N,4-dimethyl-1-{2′-[(methylsulphonyl)amino]-biphenyl-4-yl}-4,5-dihydro-3H-2,3-benzodiazepine-3-carboxamide]",70,1170,
"CNC(=O)N1N=C(c2ccc(Cl)cc2)c2cc(OCCN3CCOCC3)ccc2CC1C (racemic) [Example 32, (±)-1-(4-Chlorophenyl)-N,4-dimethyl-8-[2-(morpholin-4-yl)ethoxy]-4,5-dihydro-3H-2,3-benzodiazepine-3-carboxamide]",380,1180,
"CNC(=O)N1N=C(c2ccc(-c3c(C)noc3C)cc2)c2cc(OC)c(OC(F)F)cc2CC1C (racemic) [Example 162, (±)-7-(difluoromethoxy)-1-[4-(3,5-dimethylisoxazol-4-yl)phenyl]-8-methoxy-N,4-dimethyl-4,5-dihydro-3H-2,3-benzodiazepine-3-carboxamide]",130,380,
"CNC(=O)N1N=C(c2ccc(-c3c(C)noc3C)cc2)c2cc(OC(F)(F)F)c(Cl)cc2CC1C (racemic) [Example 156, (±)-7-Chloro-1-[4-(3,5-dimethylisoxazol-4-yl)phenyl]-N,4-dimethyl-8-(trifluoromethoxy)-4,5-dihydro-3H-2,3-benzodiazepine-3-carboxamide]",230,790,
"CNC(=O)N1N=C(c2ccc(N3CCN(C)C(=O)C3)cc2)c2cc(OC)c(OC)cc2CC1C (racemic) [Example 138, (±)-7,8-dimethoxy-N,4-dimethyl-1-[4-(4-methyl-3-oxopiperazin-1-yl)phenyl]-4,5-dihydro-3H-2,3-benzodiazepine-3-carboxamide]",30,280,
"CNC(=O)N1N=C(c2ccc(-c3ccc(C)nc3)cc2)c2cc(OC)c(OC)cc2CC1C (racemic) [Example 117, (±)-7,8-dimethoxy-N,4-dimethyl-1-[4-(6-methylpyridin-3-yl)phenyl]-4,5-dihydro-3H-2,3-benzodiazepine-3-carboxamide]",50,380,
"CNC(=O)N1N=C(c2ccc(F)c(N3CCC(O)CC3)c2)c2cc(OC)c(OC)cc2CC1C (racemic) [Example 146, (±)-1-[4-fluoro-3-(4-hydroxypiperidin-1-yl)phenyl]-7,8-dimethoxy-N,4-dimethyl-4,5-dihydro-3H-2,3-benzodiazepine-3-carboxamide]",470,1150,
"CNC(=O)N1N=C(c2ccc(N3CCCC3=O)cc2)c2cc(OC)c(OC)cc2CC1C (racemic) [Example 39, (±)-7,8-dimethoxy-N,4-dimethyl-1-[4-(2-oxopyrrolidin-1-yl)phenyl]-4,5-dihydro-3H-2,3-benzodiazepine-3-carboxamide]",80,700,
"CNC(=O)N1N=C(c2ccc(F)c(-c3c(C)nn(C)c3C)c2)c2cc(OC)c(OC)cc2CC1C (racemic) [Example 56, (±)-1-[4-fluoro-3-(1,3,5-trimethyl-1H-pyrazol-4-yl)phenyl]-7,8-dimethoxy-N,4-dimethyl-4,5-dihydro-3H-2,3-benzodiazepine-3-carboxamide]",180,900,
